Some results are limits rather than exact numbers.

The term inhibition denotes how much of the control response was suppressed. By IC50 is commonly meant the concentration needed to halve the response being measured.

This test addresses T1, Human TRPV1 expressing CHO cells (Homo sapiens, UniProt Q8NER1).
T1 construct: expressed in transfected cells; host or cells: CHO cells under G-418 selection
The test is described as follows: Screening for TRPV1 antagonist using the 45Calcium uptake assay (inhibition of capsaicin induced cellular uptake of radioactive calcium). The settings on record: for inhibition at 1 µM: CHO; for IC50: inhibition of capsaicin (250 nM) induced ^45Ca uptake. It is filed as cell-based. Here is the method:
The inhibition of TRPV1 receptor activation was followed as inhibition of capsaicin induced cellular uptake of radioactive calcium which represents calcium influx exclusively through the plasma membrane associated TRPV1 receptor.
Stock solution of capsaicin was made in ethanol and test compounds in 100% DMSO. Stock solutions were diluted to appropriate final concentrations in assay buffer keeping the final DMSO concentration between 0.1% and 0.55%.
^45Ca was used at a final concentration of 2.5 μCi/ml (^45Ca, ICN).
Assay buffer was composed of F-12 DMEM medium supplemented with 1.8 mM CaCl2 (final conc.) and 0.1% Bovine serum albumin. (BSA from SIGMA)
Wash buffer was tyrodes solution supplemented with 0.1% BSA and 1.8 mM calcium. Lysis buffer contained 50 mM Tris-HCl, pH7.5, 150 mM NaCl, 1% Triton X-100, 0.5% deoxycholate and 0.1% Sodium dodicyl sulphate (SDS, SIGMA)
Assay was carried out with some modifications the of procedure as described by Toth et. al. (See Toth A et. al., Life Sciences 73 p 487-498, 2003). Human TRPV1 expressing CHO cells were grown in F-12 DMEM (Dulbecco's modified Eagle's medium—GIBCO) medium with 10% FBS (fetal bovine serum Hyclone), 1% penicillin-streptomycin solution, 400 μg/ml of G-418. Cells were seeded 48 h prior to the assay in 96 well plates so as to get ˜50,000 cells per well on the day of experiment. Plates were incubated at 37° C. in the presence of 5% CO2. Cells were then washed twice with 200 μl of assay buffer and re-suspended in 144 μl of the same. Assay was carried out at 30° C. in total volume of 200 μl. Test compounds were added to the cells fifteen minutes before addition of capsaicin, Final concentration of capsaicin in the assay was 250 nM. After 5 minutes of agonist treatment, drug was washed out and wells rinsed with 300 μl of ice cold wash buffer 3×. The cells were lysed in 50 μl lysis buffer for 20 min. 40 μl of cell lysate was mixed with 150 μl of Microscint PS, left overnight for equilibration. Radioactivity in samples was measured as counts per minute (cpm) using Packard Biosciences Top Count. The drug/vehicle/capsaicin treated ^45Ca uptake values were normalized over basal ^45Ca value. Data was expressed as % inhibition of ^45Ca uptake by test compound with respect to maximum ^45Ca uptake induced by capsaicin alone. IC50 value was calculated from dose response curve by nonlinear regression analysis using GraphPadPRISM software.

The mark [1] stands for this setting: test compound 1 μM, capsaicin 250 nM, relative to maximum ^45Ca uptake induced by capsaicin alone.

T1 sequence (Q8NER1 whole entry): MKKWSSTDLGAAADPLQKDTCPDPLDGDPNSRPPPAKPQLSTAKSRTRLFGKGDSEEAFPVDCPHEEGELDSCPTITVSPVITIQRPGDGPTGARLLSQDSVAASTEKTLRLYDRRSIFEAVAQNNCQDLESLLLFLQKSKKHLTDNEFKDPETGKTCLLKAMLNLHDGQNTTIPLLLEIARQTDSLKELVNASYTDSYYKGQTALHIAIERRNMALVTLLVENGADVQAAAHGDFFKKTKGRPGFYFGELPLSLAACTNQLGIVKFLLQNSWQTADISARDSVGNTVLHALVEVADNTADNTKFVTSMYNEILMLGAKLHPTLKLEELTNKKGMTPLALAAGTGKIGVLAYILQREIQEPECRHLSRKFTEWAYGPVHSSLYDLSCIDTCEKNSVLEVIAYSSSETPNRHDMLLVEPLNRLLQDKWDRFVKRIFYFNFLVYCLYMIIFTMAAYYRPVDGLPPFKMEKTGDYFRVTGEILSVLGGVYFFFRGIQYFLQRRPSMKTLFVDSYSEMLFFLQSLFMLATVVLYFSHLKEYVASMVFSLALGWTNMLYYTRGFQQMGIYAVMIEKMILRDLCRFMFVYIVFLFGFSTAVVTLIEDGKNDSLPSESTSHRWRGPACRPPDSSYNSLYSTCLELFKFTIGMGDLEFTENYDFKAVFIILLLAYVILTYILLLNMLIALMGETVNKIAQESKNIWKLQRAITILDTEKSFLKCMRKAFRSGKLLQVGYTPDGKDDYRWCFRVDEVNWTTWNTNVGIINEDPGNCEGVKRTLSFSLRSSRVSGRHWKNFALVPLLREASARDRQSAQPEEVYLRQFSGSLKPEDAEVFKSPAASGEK

`Cc1cc2c(cc1Cl)C(NC(=O)Nc1cccc3cnccc13)CC1(CCC1)O2` (racemic) [Example 69, (±) 1-(6-Chloro-3,4-dihydro-7-methyl-spiro[2H-1-benzopyran-2,1′-cyclobutane]-4-yl)-3-(isoquinolin-5-yl)urea]: the IC50 is 45 nM. The inhibition at 1 µM under setting [1] is above 50%.
Taken in the same sequence, the figures for `Cc1nccc2c(NC(=O)NC3CC4(CCC4)Oc4ccccc43)cccc12` (racemic) [Example 8, (±) 1-(3,4-Dihydro-spiro[2H-1-benzopyran-2,1′-cyclobutane]-4-yl)-3-(1-methylisoquinolin-5-yl)urea] were 551 nM and above 50%.
In the case of `O=C(Nc1cccc2cnccc12)NC1CC2(CCC2)Oc2ccc(Br)cc21` (racemic) [Example 65, (±) 1-(6-Bromo-3,4-dihydro-spiro[2H-1-benzopyran-2,1′-cyclobutane]-4-yl)-3-(isoquinolin-5-yl)urea], the IC50 turned out to be 404 nM. For the same compound, under setting [1], the inhibition at 1 µM is above 50%.
For `Cn1cc2cc(NC(=O)NC3CC4(CCC4)Oc4ccccc43)ccc2n1` (racemic) [Example 15, (±) 1-(3,4-Dihydro-spiro[2H-1-benzopyran-2,1′-cyclobutane]-4-yl)-3-(2-methyl-2H-indazol-5-yl)urea], under setting [1], the inhibition at 1 µM is below 50%.
On the same count and under the same terms, then `O=C(Nc1cccc2cnccc12)NC1CC2(CCC2)Oc2cc(Cl)ccc21` (single isomer, unassigned; (-)) [Example 76, (−) 1-(7-Chloro-3,4-dihydro-spiro[2H-1-benzopyran-2,1′-cyclobutane]-4-yl)-3-(isoquinolin-5-yl)urea], with below 50%.
On to `O=C(Nc1cccc2cnccc12)NC1CC2(CCC2)Oc2c(Cl)cccc21` (racemic) [Example 49, (±) 1-(8-Chloro-3,4-dihydro-spiro[2H-1-benzopyran-2,1′-cyclobutane]-4-yl)-3-(isoquinolin-5-yl)urea], for which the IC50 was 29.9 nM. The inhibition at 1 µM under setting [1] is above 50%.
For `O=C(Nc1cccc2cnccc12)NC1CC2(CCC2)Oc2c(Cl)cc(Cl)cc21` (racemic) [Example 66, (±) 1-(6,8-Dichloro-3,4-dihydro-spiro[2H-1-benzopyran-2,1′-cyclobutane]-4-yl)-3-(isoquinolin-5-yl)urea], the IC50 stood at 462 nM. Further, under setting [1], the inhibition at 1 µM is above 50%.
On the same counts, the results for `Cc1ccc2c(c1)C(NC(=O)Nc1cccc3cnccc13)CC1(CCC1)O2` (racemic) [Example 40, (±)-1-(3,4-Dihydro-6-methyl-spiro[2H-1-benzopyran-2,1′-cyclobutane]-4-yl)-3-(isoquinolin-5-yl)urea] are 123 nM and above 50%.
Consider `COc1ccc2c(c1)C(NC(=O)Nc1cccc3cnccc13)CC1(CCC1)O2` (racemic) [Example 51, (±) 1-(3,4-Dihydro-6-methoxy-spiro[2H-1-benzopyran-2,1′-cyclobutane]-4-yl)-3-(isoquinolin-5-yl)urea], for which the IC50 is 585 nM. Further, under setting [1], the inhibition at 1 µM was above 50%.
As for `O=C(Nc1cccc2ccncc12)NC1CC2(CCC2)Oc2ccccc21` (racemic) [Example 27, (±) 1-(3,4-Dihydrospiro[2H-1-benzopyran-2,1′-cyclobutan]-4-yl)-3-(isoquinolin-8-yl)urea], the inhibition at 1 µM under setting [1] was determined as 46.9%.
Same read-out and setting: then `CC(=O)n1ncc2cc(NC(=O)NC3CC4(CCC4)Oc4ccccc43)ccc21` (racemic) [Example 19, (±) 1-(3,4-Dihydro-spiro[2H-1-benzopyran-2,1′-cyclobutane]-4-yl)-3-(1-acetyl-1H-indazol-5-yl)urea], with below 50%.
Turning to `Cc1cc2c(NC(=O)NC3CC4(CCC4)Oc4ccc(Cl)cc43)cccc2cn1` (racemic) [Example 73, (±) 1-(6-Chloro-3,4-dihydro-spiro[2H-1-benzopyran-2,1′-cyclobutane]-4-yl)-3-(3-methylisoquinolin-5-yl)urea], the IC50 worked out at 1260 nM. In addition, the inhibition at 1 µM under setting [1] was above 50%.
Take `CC(C)(C)c1nnc(NC(=O)NC2CC3(CCC3)Oc3ccccc32)s1` (racemic) [Example 16, (±) 1-(3,4-Dihydro-spiro[2H-1-benzopyran-2,1′-cyclobutane]-4-yl)-3-(5-tert-butyl-1,3,4-thiadiazol-2-yl)urea]: the IC50 is 797 nM. Also, the inhibition at 1 µM under setting [1] was above 50%.
On the same counts, the results for `O=C(Nc1cccc2c[n+]([O-])ccc12)NC1CC2(CCC2)Oc2ccccc21` (single isomer, unassigned; (+)) [Example 10, (+) 1-(3,4-Dihydro-spiro[2H-1-benzopyran-2,1′-cyclobutane]-4-yl)-3-(2-oxoisoquinolin-5-yl)urea] are 104 nM and above 50%.
As to `O=C(Nc1nc2cc(Cl)ccc2o1)NC1CC2(CCC2)Oc2ccccc21` (racemic) [Example 23, (±) 1-(3,4-Dihydro-spiro[2H-1-benzopyran-2,1′-cyclobutane]-4-yl)-3-(5-chloro-1,3-benzoxazol-2-yl)urea], the inhibition at 1 µM under setting [1] is below 50%.
In the case of `O=C(Nc1cccc2c[n+]([O-])ccc12)NC1CC2(CCC2)Oc2ccccc21` (racemic) [Example 9, (±) 1-(3,4-Dihydro-spiro[2H-1-benzopyran-2,1′-cyclobutane]-4-yl)-3-(2-oxoisoquinolin-5-yl)urea], the IC50 worked out at 103 nM. The inhibition at 1 µM under setting [1] was above 50%.
For `CC(=O)Nc1ccc2c(c1)C(NC(=O)Nc1cccc3cnccc13)CC1(CCC1)O2` (racemic) [Example 78, (±) 1-(6-Acetamido-3,4-dihydro-spiro[2H-1-benzopyran-2,1′-cyclobutane]-4-yl)-3-(isoquinolin-5-yl)urea], under setting [1], the inhibition at 1 µM was below 50%.
`Cc1nccc2c(NC(=O)NC3CC4(CCC4)Oc4ccc(Cl)cc43)cccc12` (racemic) [Example 74, (±) 1-(6-Chloro-3,4-dihydro-spiro[2H-1-benzopyran-2,1′-cyclobutane]-4-yl-3-(1-methylisoquinolin-5-yl)urea]: the IC50 stood at 917 nM. Also, under setting [1], the inhibition at 1 µM is above 50%.
As to `O=C(Nc1ccc(Cl)c2cnccc12)NC1CC2(CCC2)Oc2ccc(Cl)cc21` (racemic) [Example 70, (±) 1-(6-Chloro-3,4-dihydro-spiro[2H-1-benzopyran-2,1′-cyclobutane]-4-yl)-3-(8-chloroisoquinolin-5-yl)urea], under setting [1], the inhibition at 1 µM was below 50%.
For `O=C(Nc1cccc2cnccc12)NC1CC2(CCC2)Oc2ccc([N+](=O)[O-])cc21` (racemic) [Example 77, (±) 1-(3,4-Dihydro-6-nitro-spiro[2H-1-benzopyran-2,1′-cyclobutane]-4-yl)-3-(isoquinolin-5-yl)urea], the IC50 was 463 nM. The inhibition at 1 µM under setting [1] is above 50%.
As to `O=C(Nc1nnc(-c2ccc(Br)cc2)s1)NC1CC2(CCC2)Oc2ccccc21` (racemic) [Example 21, (±) 1-(3,4-Dihydro-spiro[2H-1-benzopyran-2,1′-cyclobutane]-4-yl)-3-([5-(4-bromophenyl)-1,3,4-thiadiazol-2-yl]-)urea], the “% inhibition of ^45Ca uptake at 1 μM” value under setting [1] is on record as below 50%.
On to `O=C(NCc1cccnc1)NC1CC2(CCC2)Oc2ccccc21` (racemic) [Example 31, (±) 1-(3,4-Dihydro-spiro[2H-1-benzopyran-2,1′-cyclobutan]-4-yl)-3-(pyridin-3-ylmethyl)urea], for which, under setting [1], the inhibition at 1 µM is below 50%.
